Laboratory results reported in patent publication EP4806898A1, “HETEROARYL DERIVATIVE COMPOUND AND USE THEREOF” (Voronoi Inc., priority 2023, dated 2025).
Read-outs that look alike come from different tables or passages of the source.

Key:
recombinant USP1 protein = target: T1, recombinant USP1 protein (Homo sapiens, UniProt O94782, DEL125-138/DEL229-408/DEL608-737); test: Binding affinity to recombinant USP1 protein by differential scanning fluorimetry; conditions: read-out: ΔTm (°C)
T1 sequence (O94782 with tags, fused parts or gaps DEL125-138/DEL229-408/DEL608-737): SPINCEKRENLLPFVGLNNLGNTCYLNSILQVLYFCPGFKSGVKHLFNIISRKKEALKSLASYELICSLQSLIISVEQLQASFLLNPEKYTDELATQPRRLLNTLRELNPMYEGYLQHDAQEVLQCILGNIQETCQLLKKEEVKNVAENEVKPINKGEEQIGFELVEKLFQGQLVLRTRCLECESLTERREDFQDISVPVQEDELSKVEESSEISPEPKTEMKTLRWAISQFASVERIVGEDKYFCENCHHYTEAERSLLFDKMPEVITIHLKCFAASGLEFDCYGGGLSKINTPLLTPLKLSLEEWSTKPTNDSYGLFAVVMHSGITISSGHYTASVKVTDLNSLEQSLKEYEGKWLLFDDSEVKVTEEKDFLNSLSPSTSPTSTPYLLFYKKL
How it was run: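 USP1 (Δ1-66, Δ125-138, Δ229-408, Δ608-737) at 0.03 mg/mL with dye in 50 mM Tris-HCl pH 8.0, 150 mM NaCl, 2% glycerol, 1 mM DTT; compounds at 100 µM final. Tm read on real-time PCR instrument; ΔTm = Tm with compound minus Tm with DMSO.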

UWB1.289 cells = test: Cell proliferation inhibitory activity in BRCA1/2-mutant or HRD-positive cells (Cell Titer-Glo); type: cell-based; conditions: read-out: GI50 UWB1.289 BRCA1 mut
How it was run: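 UWB1.289 cells (1,000/well) in 50% MEBM/50% RPMI1640 exposed to […], final 1.5 nM to 10 µM, for 144 h at 37 °C. Viable cells measured by CellTiter-Glo luminescence; GI50 calculated.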

[1] = compound 100 µM, 0.03 mg/mL USP1 (Δ1-66, Δ125-138, Δ229-408, Δ608-737), Tm with compound minus Tm with DMSO
[2] = UWB1289, UWB1.289 cells, 144 hours after compound treatment, Cell Titer-Glo, 1.5 nM to 10 µM

| ΔTm at 100 µM (recombinant USP1 protein; [1]) | SMILES | GI50 (UWB1.289 cells; [2]) | ΔTm at 100 µM (recombinant USP1 protein) | GI50 (UWB1.289 cells; UWB1289, 144 h) |
| --- | --- | --- | --- | --- |
| > 5 °C | CNC(=O)c1cc2cnc(-c3cccnc3OC)nc2n1Cc1ccc(-c2nc(C(F)(F)F)cn2C(C)C)cc1 [Example 147, 7-(4-(1-isopropyl-4-(trifluoromethyl)-1H-imidazol-2-yl)benzyl)-2-(2-methoxypyridin-3-yl)-N-methyl-7H-pyrrolo[2,3-d]pyrimidine-6-carboxamide] | < 0.1 µM | – | – |
| > 5 °C | COc1ncnc(C2CC2)c1-c1ncc2cc(C(=O)NCCN3CCC3)n(Cc3ccc(-c4nc(C(F)(F)F)cn4C(C)C)cc3)c2n1 [Example 149, N-(2-(azetidin-1-yl)ethyl)-2-(4-cyclopropyl-6-methoxypyrimidin-5-yl)-7-(4-(1-isopropyl-4-(trifluoromethyl)-1H-imidazol-2-yl)benzyl)-7H-pyrrolo[2,3-d]pyrimidine-6-carboxamide] | < 0.1 µM | – | – |
| > 5 °C | COc1ncnc(C2CC2)c1-c1ncc2cc(C(=O)NC3CC3)n(Cc3ccc(-c4nc(C(F)(F)F)cn4C)cc3)c2n1 [Example 150, N-cyclopropyl-2-(4-cyclopropyl-6-methoxypyrimidin-5-yl)-7-(4-(1-methyl-4-(trifluoromethyl)-1H-imidazol-2-yl)benzyl)-7H-pyrrolo[2,3-d]pyrimidine-6-carboxamide] | < 0.1 µM | – | – |
| > 5 °C | COc1ncnc(C2CC2)c1-c1ncc2cc(C(=O)N[C@H](C)CO)n(Cc3ccc(-c4nc(C(F)(F)F)cn4C)cc3)c2n1 [Example 151, (R) -2-(4-cyclopropyl-6-methoxypyrimidin-5-yl)-N-(1-hydroxypropan-2-yl)-7-(4-(1-methyl-4-(trifluoromethyl)-1H-imidazol-2-yl)benzyl)-7H-pyrrolo[2,3-d]pyrimidine-6-carboxamide] | < 0.1 µM | – | – |
| > 5 °C | COc1ncnc(C2CC2)c1-c1ncc2cc(C(=O)NC[C@H](O)CO)n(Cc3ccc(-c4nc(C(F)(F)F)cn4C)cc3)c2n1 [Example 152, (S)-2-(4-cyclopropyl-6-methoxypyrimidin-5-yl)-N-(2,3-dihydroxypropy 1)-7-(4-(1-methyl-4-(trifluoromethyl)-1H-imidazol-2-yl)benzyl)-7H-pyrrolo[2,3-d]pyrimidine-6-carboxamide] | 0.1 to 0.5 µM | – | – |
| > 5 °C | COc1ncnc(C2CC2)c1-c1ncc2cc(C(=O)NC3CCN(C)CC3)n(Cc3ccc(-c4nc(C(F)(F)F)cn4C)cc3)c2n1 [Example 153, 2-(4-cyclopropyl-6-methoxypyrimidin-5-yl)-7-(4-(1-methyl-4-(trifluoromethyl)-1H-imidazol-2-yl)benzyl)-N-(1-methylpiperidin-4-yl)-7H-pyrrolo[2,3-d]pyrimidine-6-carboxamide] | < 0.1 µM | – | – |
| > 5 °C | CNC(=O)c1cc2cnc(-c3c(OC)ncnc3C3CC3)cc2n1Cc1ccc(-c2nc(C(F)(F)F)cn2C(C)C)cc1 [Example 154, 6-(4-cyclopropyl-6-methoxypyrimidin-5-yl)-1-(4-(1-isopropyl-4-(trifluoromethyl)-1H-imidazol-2-yl)benzyl)-N-methyl-1H-pyrrolo[3,2-c]pyridine-2-carboxamide] | < 0.1 µM | – | – |
| > 5 °C | COc1ncnc(C2CC2)c1-c1ncc2cc(C(=O)N[C@H](CO)C(C)C)n(Cc3ccc(-c4nc(C(F)(F)F)cn4C(C)C)cc3)c2n1 [Example 155, (S)-2-(4-cyclopropyl-6-methoxypyrimidin-5-yl)-N-(1-hydroxy-3-methylbutan-2-yl)-7-(4-(1-isopropyl-4-(trifluoromethyl)-1H-imidazol-2-yl)benzyl)-7H-pyrrolo[2,3-d]pyrimidine-6-carboxamide] | < 0.1 µM | – | – |

Continued, compound first:

| SMILES | ΔTm at 100 µM (recombinant USP1 protein; [1]) | GI50 (UWB1.289 cells; [2]) | ΔTm at 100 µM (recombinant USP1 protein) | GI50 (UWB1.289 cells; UWB1289, 144 h) |
| --- | --- | --- | --- | --- |
| COc1ncnc(C2CC2)c1-c1ncc2cc(C(=O)NC[C@H](C)OC)n(Cc3ccc(-c4nc(C(F)(F)F)cn4C(C)C)cc3)c2n1 [Example 135, (S)-2-(4-cyclopropyl-6-methoxypyrimidin-5-yl)-7-(4-(1-isopropyl-4-(trifluoromethyl)-1H-imidazol-2-yl)benzyl)-N-(2-methoxypropyl) -7H-pyrrolo[2,3-d]pyrimidine-6-carboxamide] | > 5 °C | < 0.1 µM | – | – |
| COc1ncnc(C2CC2)c1-c1ncc2cc(C(=O)NC3CCN(C(C)C)CC3)n(Cc3ccc(-c4nc(C(F)(F)F)cn4C(C)C)cc3)c2n1 [Example 137, 2-(4-cyclopropyl-6-methoxypyrimidin-5-yl)-7-(4-(1-isopropyl-4-(trifluoromethyl)-1H-imidazol-2-yl)benzyl)-N-(1-isopropylpiperidin-4-yl)-7H-pyrrolo[2,3-d]pyrimidine-6-carboxamide] | > 5 °C | < 0.1 µM | – | – |
| COc1ncnc(C2CC2)c1-c1ncc2cc(C(=O)NC3(CO)COC3)n(Cc3ccc(-c4nc(C(F)(F)F)cn4C(C)C)cc3)c2n1 [Example 138, 2-(4-cyclopropyl-6-methoxypyrimidin-5-yl)-N-(3-(hydroxymethyl)oxetan-3-yl)-7-(4-(1-isopropyl-4-(trifluoromethyl)-1H-imidazol-2-yl)benzyl)-7H-pyrrolo[2,3-d]pyrimidine-6-carboxamide] | > 5 °C | < 0.1 µM | – | – |
| COc1ncnc(C2CC2)c1-c1ncc2cc(C(=O)N(C)CC3COC3)n(Cc3ccc(-c4nc(C(F)(F)F)cn4C(C)C)cc3)c2n1 [Example 139, 2-(4-cyclopropyl-6-methoxypyrimidin-5-yl)-7-(4-(1-isopropyl-4-(trifluoromethyl)-1H-imidazol-2-yl)benzyl)-N-methyl-N-(oxetan-3-ylmethyl)-7H-pyrrolo[2,3-d]pyrimidine-6-carboxamide] | – | – | > 5 °C | < 0.1 µM |
| COc1ncnc(C2CC2)c1-c1ncc2cc(C(=O)NCC3(O)COC3)n(Cc3ccc(-c4nc(C(F)(F)F)cn4C(C)C)cc3)c2n1 [Example 140, 2-(4-cyclopropyl-6-methoxypyrimidin-5-yl)-N-((3-hydroxyoxetan-3-yl)methyl)-7-(4-(1-isopropyl-4-(trifluoromethyl)-1H-imidazol-2-yl)benzyl)-7H-pyrrolo[2,3-d]pyrimidine-6-carboxamide] | – | – | > 5 °C | < 0.1 µM |
| COc1ncnc(C2CC2)c1-c1ncc2cc(C(=O)NCC3COC3)n(Cc3ccc(-c4nc(C(F)(F)F)cn4C(C)C)cc3)c2n1 [Example 141, 2-(4-cyclopropyl-6-methoxypyrimidin-5-yl)-7-(4-(1-isopropyl-4-(trifluoromethyl)-1H-imidazol-2-yl)benzyl)-N-(oxetan-3-ylmethyl) -7H-pyrrolo[2,3-d]pyrimidine-6-carboxamide] | > 5 °C | < 0.1 µM | – | – |
| COc1ncnc(C2CC2)c1-c1ncc2cc(C(=O)NCC3(F)COC3)n(Cc3ccc(-c4nc(C(F)(F)F)cn4C(C)C)cc3)c2n1 [Example 142, 2-(4-cyclopropyl-6-methoxypyrimidin-5-yl)-N-((3-fluorooxetan-3-yl)methyl)-7-(4-(1-isopropyl-4-(trifluoromethyl)-1H-imidazol-2-yl)benzyl)-7H-pyrrolo[2,3-d]pyrimidine-6-carboxamide] | > 5 °C | < 0.1 µM | – | – |
| CNCCNC(=O)c1cc2cnc(-c3c(OC)ncnc3C3CC3)nc2n1Cc1ccc(-c2nc(C(F)(F)F)cn2C(C)C)cc1 [Example 143, 2-(4-cyclopropyl-6-methoxypyrimidin-5-yl)-7-(4-(1-isopropyl-4-(trifluoromethyl)-1H-imidazol-2-yl)benzyl) -N-(2-(methylamino)ethyl)-7H-pyrrolo[2,3-d]pyrimidine-6-carboxamide] | > 5 °C | 0.1 to 0.5 µM | – | – |
| CNC1CN(C(=O)c2cc3cnc(-c4c(OC)ncnc4C4CC4)nc3n2Cc2ccc(-c3nc(C(F)(F)F)cn3C(C)C)cc2)C1 [Example 144, (2-(4-cyclopropyl-6-methoxypyrimid in-5-yl)-7-(4-(1-isopropyl-4-(trifluoromethyl)-1H-imidazol-2-yl)benzyl) -7H-pyrrolo[2,3-d]pyrimidin-6-yl) (3-(methylamino)azetidin-1-yl)methanone] | > 5 °C | < 0.1 µM | – | – |
| CNC(=O)c1cc2cnc(-c3c(OC)ncnc3C3CC3)nc2n1Cc1ccc(-c2nc(C(F)(F)F)cn2C2CC2)cc1 [Example 145, 7-(4-(1-cyclopropyl-4-(trifluoromethyl) -1H-imidazol-2-yl)benzyl)-2-(4-cyclopropyl-6-methoxypyrimidin-5-yl)-N-methyl-7H-pyrrolo[2,3-d]pyrimidine-6-carboxamide] | > 5 °C | 0.1 to 0.5 µM | – | – |
| CNC(=O)c1cc2cnc(-c3c(OC)ncnc3C3CC3)nc2n1Cc1ccc(-c2nc(C(F)(F)F)cn2C(C)C)c(F)c1 [Example 146, 2-(4-cyclopropyl-6-methoxypyrimidin-5-yl)-7-(3-fluoro-4-(1-isopropyl-4-(trifluoromethyl)-1H-imidazol-2-yl)benzyl)-N-methyl-7H-pyrrolo[2,3-d]pyrimidine-6-carboxamide] | > 5 °C | < 0.1 µM | – | – |
